In ChEMBL document CHEMBL1201862, “PubChem BioAssay data set” (2004):
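Growth conditions: 96-well plates. Treatment: test compound, 48 hours, 5 concentrations. Analysis: linear interpolation between bracketing concentrations; unreached endpoints set to highest concentration. At the GI50, growth is halved.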 Active and inactive are the calls of the source. Cut-off read from the data, not from the text of the source: active = GI50 up to about 1.1 µM and inactive = higher.

Columns and labels:
Assay in all cases: NCI anticancer screen, dose series, 48 h
ACHN = system: ACHN
SNB-78 = system: SNB-78
CCRF-CEM = system: CCRF-CEM
COLO 205 = system: COLO 205
M14 = system: M14
RPMI-8226 = system: RPMI-8226
U-251 = system: U-251
SN12C = system: SN12C
SNB-19 = system: SNB-19
OVCAR-4 = system: OVCAR-4
LOX IMVI = system: LOX IMVI
SR = system: SR
Malme-3M = system: Malme-3M
OVCAR-8 = system: OVCAR-8
HCT-15 = system: HCT-15
786-0 = system: 786-0
DU-145 = system: DU-145
MDA-N = system: MDA-N
MDA-MB-231 = system: MDA-MB-231
MDA-MB-435 = system: MDA-MB-435

CN(OC(=O)CC(=O)c1ccccc1)C(=O)Cc1ccccc1
GI50 (ACHN): > 100 µM (inactive) | GI50 (SNB-78): > 100 µM (inactive) | GI50 (CCRF-CEM): > 100 µM (inactive) | GI50 (COLO 205): > 100 µM (inactive) | GI50 (M14): > 100 µM (inactive) | GI50 (RPMI-8226): 46.7 µM (inactive) | GI50 (U-251): > 100 µM (inactive) | GI50 (SN12C): > 100 µM (inactive) | GI50 (SNB-19): > 100 µM (inactive) | GI50 (OVCAR-4): > 100 µM (inactive) | GI50 (LOX IMVI): > 100 µM (inactive) | GI50 (SR): > 100 µM (inactive) | GI50 (Malme-3M): > 100 µM (inactive) | GI50 (OVCAR-8): > 100 µM (inactive) | GI50 (HCT-15): > 100 µM | GI50 (786-0): > 100 µM (inactive)

CCCCCCCCCCCCC(O)C1CCC(C(O)CCCCC(O)CCCCCC2CC(CC(C)=O)C(=O)O2)O1 (configuration not stated)
GI50 (ACHN): 7.85 µM (inactive) | GI50 (SNB-78): 12.5 µM (inactive) | GI50 (CCRF-CEM): 1.43 µM (inactive) | GI50 (COLO 205): 3.19 µM (inactive) | GI50 (M14): 7.29 µM (inactive) | GI50 (U-251): 3.11 µM (inactive) | GI50 (DU-145): 3.86 µM (inactive) | GI50 (SN12C): 4.83 µM (inactive) | GI50 (SNB-19): 2.33 µM (inactive) | GI50 (OVCAR-4): 1.44 µM (inactive) | GI50 (LOX IMVI): 1.4 µM (inactive) | GI50 (SR): 1.34 µM (inactive) | GI50 (Malme-3M): 0.94 µM (active) | GI50 (OVCAR-8): 3.44 µM (inactive) | GI50 (HCT-15): 3.35 µM | GI50 (MDA-N): 1.6 µM (inactive) | GI50 (MDA-MB-231): 2.54 µM (inactive) | GI50 (786-0): 6.79 µM (inactive)

CCCCCCCCCCCCCCCCCC[N+](C)(C)Cc1ccc(C[N+](C)(C)CCCCCCCCCCCCCCCCCC)cc1
GI50 (ACHN): 10.4 µM (inactive) | GI50 (SNB-78): 18.8 µM (inactive) | GI50 (CCRF-CEM): 16.9 µM (inactive) | GI50 (COLO 205): 34.8 µM (inactive) | GI50 (M14): 17.3 µM (inactive) | GI50 (RPMI-8226): 15.6 µM (inactive) | GI50 (U-251): 7.98 µM (inactive) | GI50 (SN12C): 10.9 µM (inactive) | GI50 (SNB-19): 14.1 µM (inactive) | GI50 (OVCAR-4): 9.53 µM (inactive) | GI50 (LOX IMVI): 13.6 µM (inactive) | GI50 (SR): 2.39 µM (inactive) | GI50 (Malme-3M): 24.3 µM (inactive) | GI50 (OVCAR-8): 6.5 µM (inactive) | GI50 (HCT-15): 28 µM | GI50 (786-0): 12.7 µM (inactive)

COC(=O)C1[C@@H](C(=O)OC)C(=O)O[C@H]1c1cc(OC)c(OC)c(OC)c1 (some centres not stated)
GI50 (ACHN): > 100 µM (inactive) | GI50 (SNB-78): > 100 µM (inactive) | GI50 (CCRF-CEM): > 100 µM (inactive) | GI50 (COLO 205): > 100 µM (inactive) | GI50 (M14): > 100 µM (inactive) | GI50 (RPMI-8226): > 100 µM (inactive) | GI50 (U-251): > 100 µM (inactive) | GI50 (SN12C): > 100 µM (inactive) | GI50 (SNB-19): > 100 µM (inactive) | GI50 (OVCAR-4): > 100 µM (inactive) | GI50 (LOX IMVI): > 100 µM (inactive) | GI50 (SR): > 100 µM (inactive) | GI50 (Malme-3M): > 100 µM (inactive) | GI50 (OVCAR-8): > 100 µM (inactive) | GI50 (HCT-15): > 100 µM | GI50 (786-0): > 100 µM (inactive)

O=C(NCCCCCCCCNC(=O)c1cnc2ccccc2n1)c1cnc2ccccc2n1
GI50 (ACHN): > 100 µM (inactive) | GI50 (SNB-78): > 100 µM (inactive) | GI50 (CCRF-CEM): > 100 µM (inactive) | GI50 (COLO 205): > 100 µM (inactive) | GI50 (M14): > 100 µM (inactive) | GI50 (RPMI-8226): > 100 µM (inactive) | GI50 (U-251): > 100 µM (inactive) | GI50 (SN12C): > 100 µM (inactive) | GI50 (SNB-19): > 100 µM (inactive) | GI50 (OVCAR-4): > 100 µM (inactive) | GI50 (LOX IMVI): > 100 µM (inactive) | GI50 (SR): > 100 µM (inactive) | GI50 (Malme-3M): > 100 µM (inactive) | GI50 (OVCAR-8): > 100 µM (inactive) | GI50 (HCT-15): > 100 µM | GI50 (786-0): > 100 µM (inactive)

CC(=O)NC1C(OCc2ccccc2)OC(CO)C(O)C1OC(C)C(=O)NC(C)C(=O)N[C@@H](CCC(=O)OCCCNC1c2ccccc2Nc2cccc([N+](=O)[O-])c21)C(N)=O (some centres not stated)
GI50 (ACHN): < 0.01 µM (active) | GI50 (SNB-78): 0.0121 µM (active) | GI50 (COLO 205): < 0.01 µM (active) | GI50 (M14): < 0.01 µM (active) | GI50 (RPMI-8226): < 0.01 µM (active) | GI50 (U-251): < 0.01 µM (active) | GI50 (MDA-MB-435): 0.0157 µM (active) | GI50 (DU-145): 0.0314 µM (active) | GI50 (SN12C): < 0.01 µM (active) | GI50 (SNB-19): < 0.0124 µM (active) | GI50 (OVCAR-4): < 0.0111 µM (active) | GI50 (LOX IMVI): 0.0269 µM (active) | GI50 (SR): < 0.01 µM (active) | GI50 (Malme-3M): < 0.01 µM (active) | GI50 (OVCAR-8): < 0.01 µM (active) | GI50 (HCT-15): 0.0028 µM | GI50 (MDA-N): 0.0152 µM (active) | GI50 (MDA-MB-231): 0.0282 µM (active) | GI50 (786-0): < 0.01 µM (active)

O=C1NC2(C=Cc3c(ccc4ccccc34)O2)Oc2ccccc21 (configuration not stated)
GI50 (ACHN): 18.7 µM (inactive) | GI50 (SNB-78): 20.7 µM (inactive) | GI50 (CCRF-CEM): 3.95 µM (inactive) | GI50 (COLO 205): 14.8 µM (inactive) | GI50 (M14): 31 µM (inactive) | GI50 (RPMI-8226): 6.08 µM (inactive) | GI50 (U-251): 15 µM (inactive) | GI50 (SN12C): 17.4 µM (inactive) | GI50 (SNB-19): 20.7 µM (inactive) | GI50 (OVCAR-4): 19.1 µM (inactive) | GI50 (LOX IMVI): 12.9 µM (inactive) | GI50 (SR): 5.15 µM (inactive) | GI50 (Malme-3M): 28.1 µM (inactive) | GI50 (OVCAR-8): 26.9 µM (inactive) | GI50 (HCT-15): 7.46 µM | GI50 (786-0): 19 µM (inactive)
